Where a SMILES comes first, the peptide text is derived from it. Where no end group is shown, it is not given here. [ ]: non-standard residue; d: D form. A value given as a limit tells only on which side of the number the result lay.

Series [1] concerns primary human ovarian cancer cell lines. Description: Cell number (Wst-1) and apoptosis (Annexin V/PI FACS) of patient derived ovarian cancer cell lines. Format: cell-based. The text has this: FIGS. 12A-12E show stimulation of Tsp-1 and its effects on ovarian cancer cell growth and survival. FIG. 12A is a western blot of Tsp-1 and β-actin in WI-38 lung fibroblasts that were untreated (−) or treated with native DWLP (SEQ ID NO: 6), L-amino acid, prosaposin peptide (WT), dWIP (SEQ ID NO: 5, lower case d and 1 indicate D-amino acids) prosaposin peptide (d1.3) or DwLp (SEQ ID NO: 7, lower case w and p indicate D-amino acids) prosaposin peptide (d2,4): […] is a western blot of Tsp-1 and β-actin in mouse lung tissue harvested from mice treated with metastatic prostate cancer cell conditioned media alone (−) or in combination with DWLP (SEQ ID NO: 6) prosaposin peptide (WT) or dWIP (SEQ ID NO: 5, lower case d and l indicate D-amino acids) prosaposin peptide (d1,3 peptide) at doses of 10 and 30 mg/kg/day for 3 days; FIG. 12C is a western blot of CD36 and β-actin in 8 patient derived ovarian cancer cell lines; FIG. 12D is a plot of cell number as measured by Wst-1 assay of a patient derived ovarian cancer cell line treated with 1 μM recombinant human Tsp-1 (rhTsp-1) for 24, 48 and 72 hours; and FIG. 12E is a FACS analysis of Annexin V and PI of a patient derived ovarian cancer cell line treated with 1 μM recombinant human Tsp-1 (rhTsp-1) for 48 hours.
In order to test the efficacy of the d-amino acid Psap peptide, a suitable tumor model that would represent a potential clinical application for the peptide, was determined. Given that Psap, and the peptide derived from it, stimulates Tsp-1 in bone marrow derived cells that are recruited to sites of metastasis, a specific type of cancer that expressed the receptor for Tsp-1 that mediates its pro-apoptotic activity, CD36 was sought to be identified (5). It has been reported that serous ovarian epithelial cells and human ovarian cancer cells express CD36 (11-13). […] Three of these cell lines were treated with recombinant human Tsp-1 for up to 72 hours and determined its effect on cell number and apoptosis.

Another series relates to DF14 cells. Description: PDX model of established ovarian cancer metastases, d-amino acid Psap peptide. The conditions noted are these: for body weight: 40 mg/kg QD, FIG. 16. Further details: mice that died from adverse side effects / decrease of total body weight: dose or concentration left out as unconfirmed. Format: in vivo. The text has this:
75 percent of ovarian cancer patients already have disseminated disease at the time of first diagnosis (E. Lengyel, Ovarian cancer development and metastasis. Am J Pathol 177, 1053-1064 (2010)). For these patients inhibiting metastasis would have limited therapeutic benefit. Rather, these patients require a therapeutic agent that can regress or, at the very least, stabilize existing metastases. Whether the d-amino acid Psap peptide could have therapeutic efficacy in a model of established metastatic dissemination was investigated. 1×10^6 DF14 cells, expressing firefly luciferase, were injected into the peritoneal cavity of SCID mice to mimic the route of dissemination of human ovarian cancer. The growth of metastatic colonies in the mice in real time were monitored via relative luciferase intensity and when the average intensity of the luciferase signal was 0.5-1×10^8 RLU, treatment with vehicle (saline), the d-amino acid peptide (40 mg/kg QD), or cisplatin (4 mg/kg QOD) was started. […] However, during those 20 days half of the cisplatin treated mice died from adverse side effects of the drug as defined by total body weight, which decreased by 40% (FIG. 13C). Moreover, after 20 days the tumors in the group of cisplatin treated mice that survived began to grow, despite continued treatment with cisplatin, and all the remaining mice died within 10 days (FIG. 13A).
The livers and spleens of the Psap peptide treated mice were examined histologically (H&E) to determine whether there were any micrometastases.
Metastases in the peritoneal cavity recruited Cd11b^+/Gr1^+ bone marrow derived cells, analogous to lung metastases was investigated (3). […] The fluid was FACS sorted from these mice to assess the population of Cd11^+/Gr1^+ bone marrow derived cells. […] Based on these findings it was concluded that the Psap peptide was able to dramatically regress established metastases to the point where no detectable lesions could be found.

A further series relates to thrombospondin-1 (Tsp-1). Description: Tsp-1 activation in cultured cells by Western blot. Format: cell-based. Here is the method: Cells were cultured and contacted with 4 micrograms/mL or 10 micrograms/mL of each peptide and the level of thrombospondin-1 (Tsp-1) activation was measured by Western blot. Tsp-1 has been previously shown to be activated by Saposin A protein.
On the technique in general: Immunoblotting shows a protein as a band on a membrane.

The nature of series [2]: Stability in human plasma at 37° C., read out as Tsp-1 stimulation in WI-38 fibroblasts (ELISA). Format: in vitro ADME. The note with it: 24 hours. Here is the method:
The cyclic peptide DWLPK (SEQ ID NO: 1) was also tested for stability in human plasma compared to the linear peptide dWIP (SEQ ID NO: 5). Each peptide was incubated in human plasma at 37 degrees Celsius, for 2, 4, 8, or 24 hours.
Cyclization also has the effect of increasing the stability of peptides by forcing them into a conformation that is not recognized by most naturally occurring proteases (9, 10, 14-18). The stability of the cyclic peptide to the linear d-amino acid peptide in human plasma was compared.
(In general: An ELISA detects its analyte on a solid surface through an enzyme-linked reagent.)

The subject of another series is Tsp-1. Description: Tsp-1 expression in lungs of mice pretreated with PC3M-LN4 conditioned media (western blot). Format: in vivo, C57BL6/J mice. The note with it: dose of 10 mg/kg, 3 days, LN4 CM. Here is the method: The activity of the 1,3-d-amino acid Psap peptide and the native Psap peptide were tested in vivo. The peptides were systematically administered to C57BL6/J mice that were pretreated with conditioned media (CM) from PC3M-LN4 (LN4) cells, which previously mimicked the systemic properties of metastatic tumors by repressing the expression of Tsp-1 in the lungs of mice (3, 4). After 3 days of treatment with LN4 CM alone or in combination with two different doses (10 mg/kg/day and 30 mg/kg/day) of d- and 1-amino acid peptides (independently) protein pools were prepared from the harvested lungs of each treatment group. The level of Tsp-1 expression in the lungs of these mice were assessed by western blot analysis. It was observed that the 1,3-d-amino acid peptide stimulated Tsp-1 3-fold greater than the native peptide (FIG. 12B). […] Based on the observation that the in vitro activity of the two peptides was virtually identical, it was concluded that the difference in activity in vivo was due to a difference in stability.

For the compound `N.N.[Cl][Pt][Cl]` [cisplatin], the “necrosis (low Anexin V and high PI staining)” value in series [1] (FIG. 12E, compared with Tsp-1 treatment) is listed as “much greater percentage of ovarian cancer cells underwent necrosis”. Besides, the “time until all remaining mice died” value with DF14 cells (after day 20 of treatment) is no more than 10 days. Also, in the series with DF14 cells (during first 20 days), the “decrease of total body weight” value worked out at 40% and the “mice that died from adverse side effects” value is given as “half”. Moreover, the “tumor volume as determined by luciferase intensity” value in the series with DF14 cells (first 20 days of treatment, peptide 40 mg/kg QD, cisplatin 4 mg/kg QOD) is “able to regress tumor volume”. Further, in the series with DF14 cells (surviving mice, cisplatin 4 mg/kg QOD), the “tumor growth after 20 days despite continued treatment” value is “began to grow”.
With `CC(C)C[C@@H]1NC(=O)[C@H](Cc2c[nH]c3ccccc23)NC(=O)[C@@H](CC(=O)O)NC(=O)[C@H](CCCCN)NC(=O)[C@@H]2CCCN2C1=O` [cyclic dWLPK] (cyclo(K[dD]WLP)), the “effectiveness at increasing the level of Tsp-1” value in the series on thrombospondin-1 (Tsp-1) (cyclic peptides, 4 micrograms/mL or 10 micrograms/mL, Western blot, FIG. 2) is recorded as “least effective”.
For the compound `CC(C)C[C@@H](NC(=O)[C@H](Cc1c[nH]c2ccccc12)NC(=O)[C@H](N)CC(=O)O)C(=O)N1CCC[C@H]1C(=O)O` [linear dWIP, reference compound] (H-[dD]W[dL]P-OH; N-terminus and C-terminus assumed), the “ability to activate Tsp-1 after incubation in human plasma” value in series [2] (37 degrees Celsius, FIG. 3) is given as “significantly less activity”. Moreover, the “Tsp-1 stimulation after incubation in human plasma” value in series [2] (37° C., ELISA) was “no longer able to stimulate Tsp-1”. The body weight result with DF14 cells (listed as Psap peptide) is reported as “no loss of body weight”; in the series with DF14 cells (listed as psap peptide), “no effect on body weight”.
As for “RhTsp-1: recombinant human Tsp-1 (thrombospondin-1)”, in series [1] (1 μM, 48 hours, FIG. 12E), the “apoptotic cells (Anexin V positivity) by FACS” value is given as 30-60%. Further, in series [1] (three cell lines, up to 72 hours, 1 μM, FIG. 12D), the “decrease in total cell number, of the original number of cells plated” value is “up to 50%”.
As to “linear DWGPK: linear version of peptide DWGPK (SEQ ID NO: 2) (not fully specified) [reference compound]”, in the series on thrombospondin-1 (Tsp-1) (similar study with linear versions), the “effectiveness at increasing Tsp-1, linear versions of the peptides” value is listed as “more effective than linear DWLPK”.
Consider “native peptide: native DWLP (SEQ ID NO: 6), L-amino acid, prosaposin peptide (WT)”, for which the “Tsp-1 stimulation in lungs” value with Tsp-1 is “did not significantly stimulate Tsp-1”.
